As a reminder, the IC50 is the concentration that inhibits the measured activity by half.

Where only a bound is given, the exact number is not on record here.

For the experiment, the target named is T1, CCR2 (Homo sapiens, UniProt P41597).
T1 construct: host or cells: THP-1 (human monocytic cell line)
T1 sequence (P41597 1-360 isoform P41597-2): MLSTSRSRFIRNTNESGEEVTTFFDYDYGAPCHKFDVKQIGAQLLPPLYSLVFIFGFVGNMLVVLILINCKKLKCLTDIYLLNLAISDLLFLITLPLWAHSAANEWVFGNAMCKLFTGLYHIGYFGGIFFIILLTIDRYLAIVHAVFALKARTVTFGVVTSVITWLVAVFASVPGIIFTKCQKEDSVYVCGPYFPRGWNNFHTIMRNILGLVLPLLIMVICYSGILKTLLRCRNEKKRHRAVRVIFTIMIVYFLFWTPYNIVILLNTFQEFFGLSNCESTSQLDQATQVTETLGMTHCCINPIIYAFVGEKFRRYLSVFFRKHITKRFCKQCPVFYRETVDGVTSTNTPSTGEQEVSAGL
The experiment is described as follows: MCP-1 Receptor Binding Assay in THP-1 Cells (125I labeled MCP-1). The settings on record: 0.5 nM 125I labeled MCP-1, 2 hours at 30° C., read-out: Inhibition of MCP-1 Binding IC50, CCR2 Binding. As to the method:
Compounds of the invention were subjected to various representative biological tests. […] MCP-1 Receptor Binding Assay in THP-1 Cells
Human monocytic cell line THP-1 cells were obtained from American Type Culture Collection (Manassas, Va., USA). […] The cell density was maintained […].
1 μM cold MCP-1 was used for nonspecific binding.
With `O=C(CNC(=O)c1cccc(C(F)(F)F)c1)NC1CN(C2CCC(c3ccc(=O)n(CCO)c3)CC2)C1` (stereo not drawn) [Example 43, N-[(1-{4-[1-(2-Hydroxy-ethyl)-6-oxo-1,6-dihydro-pyridin-3-yl]-cyclohexyl}-azetidin-3-ylcarbamoyl)-methyl]-3-trifluoromethyl-benzamide], the IC50 worked out at 330 nM.
`O=C(CNC(=O)c1cccc(C(F)(F)F)c1)NC1CN(C2CCC(c3ccncc3O)CC2)C1` (stereo not drawn) [Example 9, N-({1-[4-(3-Hydroxy-pyridin-4-yl)-cyclohexyl]-azetidin-3-ylcarbamoyl}-methyl)-3-trifluoromethyl-benzamide]: the 50% inhibitory concentration (IC50) worked out at 52 nM.
The figure for `O=C(CNC(=O)c1ccccc1)NC1CN(C2CCC(c3c[nH]c4ccccc34)CC2)C1` (stereo not drawn) [Example 49, N-({1-[4-(1H-Indol-3-yl)-cyclohexyl]-azetidin-3-ylcarbamoyl}-methyl)-benzamide] is greater than 25000 nM.
For `Nc1noc(N)c1C1CCC(N2CC(NC(=O)CNC(=O)c3cccc(C(F)(F)F)c3)C2)CC1` (stereo not drawn) [Example 55, N-({1-[4-(3,5-Diimino-isoxazolidin-4-yl)-cyclohexyl]-azetidin-3-ylcarbamoyl}-methyl)-3-trifluoromethyl-benzamide], the 50% inhibitory concentration (IC50) amounted to 125 nM.
In the case of `O=C(CNC(=O)c1cccc(C(F)(F)F)c1)NC1CN(C2CCC(c3ncccc3O)CC2)C1` (stereo not drawn) [Example 3, N-({1-[4-(3-Hydroxy-pyridin-2-yl)-cyclohexyl]-azetidin-3-ylcarbamoyl}-methyl)-3-trifluoromethyl-benzamide] it was 24 nM.
In the case of `Cc1cc(C2CCC(N3CC(NC(=O)CNC(=O)c4cccc(C(F)(F)F)c4)C3)CC2)cn(C)c1=O` (single isomer, unassigned) [Example 45a, N-({1-[4-(1,5-Dimethyl-6-oxo-1,6-dihydro-pyridin-3-yl)-cyclohexyl]-azetidin-3-ylcarbamoyl}-methyl)-3-trifluoromethyl-benzamide] it was 61 nM.
Regarding `Cc1cc(=O)[nH]c(C2CCC(N3CC(NC(=O)CNC(=O)c4cccc(C(F)(F)F)c4)C3)CC2)n1` (mixture of isomers) [Example 60, N-({1-[4-(4-Methyl-6-oxo-1,6-dihydro-pyrimidin-2-yl)-cyclohexyl]-azetidin-3-ylcarbamoyl}-methyl)-3-trifluoromethyl-benzamide], the IC50 is 3900 nM.
In the case of `O=C(CNC(=O)c1cccc(C(F)(F)F)c1)NC1CN(C2CCC(c3nc4c(c(=O)[nH]3)CCCC4)CC2)C1` (mixture of isomers) [Example 61, N-({1-[4-(4-Oxo-3,4,5,6,7,8-hexahydro-quinazolin-2-yl)-cyclohexyl]-azetidin-3-ylcarbamoyl}-methyl)-3-trifluoromethyl-benzamide] it was 4000 nM.
For `O=C(CNC(=O)c1cccc(C(F)(F)F)c1)NC1CN(C2CCC(c3ccc(=O)n(CC(F)(F)F)c3)CC2)C1` (single isomer, unassigned) [Example 42a, N-[(1-{4-[6-Oxo-1-(2,2,2-trifluoro-ethyl)-1,6-dihydro-pyridin-3-yl]-cyclohexyl}-azetidin-3-ylcarbamoyl)-methyl]-3-trifluoromethyl-benzamide], the half-maximal inhibitory concentration (IC50) came out at 150 nM.
The figure for `Cn1cccc(C2CCC(N3CC(NC(=O)CNC(=O)c4cccc(C(F)(F)F)c4)C3)CC2)c1=O` (stereo not drawn) [Example 48, N-({1-[4-(1-Methyl-2-oxo-1,2-dihydro-pyridin-3-yl)-cyclohexyl]-azetidin-3-ylcarbamoyl}-methyl)-3-trifluoromethyl-benzamide] is 630 nM; for `COc1ccc(C2(F)CCC(N3CC(NC(=O)CNC(=O)c4cccc(C(F)(F)F)c4)C3)CC2)cn1` (single isomer, unassigned) [Example 64a, N-({1-[4-Fluoro-4-(6-methoxy-pyridin-3-yl)-cyclohexyl]-azetidin-3-ylcarbamoyl}-methyl)-3-trifluoromethyl-benzamide] it is 110 nM; for `CC(=O)Nc1cccnc1C1CCC(N2CC(NC(=O)CNC(=O)c3cccc(C(F)(F)F)c3)C2)CC1` (stereo not drawn) [Example 18, N-({1-[4-(3-Acetylamino-pyridin-2-yl)-cyclohexyl]-azetidin-3-ylcarbamoyl}-methyl)-3-trifluoromethyl-benzamide] it is 380 nM.
In the case of `N#CCn1cc(C2CCC(N3CC(NC(=O)CNC(=O)c4cccc(C(F)(F)F)c4)C3)CC2)ccc1=O` (stereo not drawn) [Example 41, N-({1-[4-(1-Cyanomethyl-6-oxo-1,6-dihydro-pyridin-3-yl)-cyclohexyl]-azetidin-3-ylcarbamoyl}-methyl)-3-trifluoromethyl-benzamide], the IC50 was 130 nM.
In the case of `Nc1cccc(C2CCC(N3CC(NC(=O)CNC(=O)c4cccc(C(F)(F)F)c4)C3)CC2)n1` (single isomer, unassigned) [Example 22a, N-({1-[4-(6-Amino-pyridin-2-yl)-cyclohexyl]-azetidin-3-ylcarbamoyl}-methyl)-3-trifluoromethyl-benzamide] it was 25 nM; in that of `NC(=O)c1ncc(C2CCC(N3CC(NC(=O)CNC(=O)c4cccc(C(F)(F)F)c4)C3)CC2)s1` (stereo not drawn) [Example 53, 5-(4-{3-[2-(3-Trifluoromethyl-benzoylamino)-acetylamino]-azetidin-1-yl}-cyclohexyl)-thiazole-2-carboxylic acid amide], 1000 nM.
The figure for `O=C(CNC(=O)c1cccc(C(F)(F)F)c1)NC1CN(C2CCC(c3ncccc3NC(=O)C(F)(F)F)CC2)C1` (stereo not drawn) [Example 17, N-[(1-{4-[3-(2,2,2-Trifluoro-acetylamino)-pyridin-2-yl]-cyclohexyl}-azetidin-3-ylcarbamoyl)-methyl]-3-trifluoromethyl-benzamide] is 920 nM; for `O=C(CNC(=O)c1cccc(C(F)(F)F)c1)NC1CN(C2CCC(c3cccc(NC(=O)C(F)(F)F)n3)CC2)C1` (stereo not drawn) [Example 24, N-[(1-{4-[6-(2,2,2-Trifluoro-acetylamino)-pyridin-2-yl]-cyclohexyl}-azetidin-3-ylcarbamoyl)-methyl]-3-trifluoromethyl-benzamide] it is 60 nM; for `Nc1ccncc1C1CCC(N2CC(NC(=O)CNC(=O)c3cccc(C(F)(F)F)c3)C2)CC1` (single isomer, unassigned) [Example 27a, N-({1-[4-(4-Amino-pyridin-3-yl)-cyclohexyl]-azetidin-3-ylcarbamoyl}-methyl)-3-trifluoromethyl-benzamide] it is 2700 nM.
Consider `O=C(CNC(=O)c1cccc(C(F)(F)F)c1)NC1CN(C2CCC(c3cccc(=O)[nH]3)CC2)C1` (stereo not drawn) [Example 47, N-({1-[4-(6-Oxo-1,6-dihydro-pyridin-2-yl)-cyclohexyl]-azetidin-3-ylcarbamoyl}-methyl)-3-trifluoromethyl-benzamide], for which the half-maximal inhibitory concentration (IC50) is 180 nM.
In the case of `Nc1ccnc(C2CCC(N3CC(NC(=O)CNC(=O)c4cccc(C(F)(F)F)c4)C3)CC2)c1` (stereo not drawn) [Example 33, N-({1-[4-(4-Amino-pyridin-2-yl)-cyclohexyl]-azetidin-3-ylcarbamoyl}-methyl)-3-trifluoromethyl-benzamide] it was 250 nM; in that of `CS(=O)(=O)Nc1ccc(C2CCC(N3CC(NC(=O)CNC(=O)c4cccc(C(F)(F)F)c4)C3)CC2)nc1` (stereo not drawn) [Example 15, N-({1-[4-(5-Methanesulfonyl-amino-pyridin-2-yl)-cyclohexyl]-azetidin-3-ylcarbamoyl}-methyl)-3-trifluoromethyl-benzamide], 230 nM.

(Values after patent publication US8269015B2, “4-azetidinyl-1-heteroaryl-cyclohexane antagonists of CCR2” (Janssen Pharmaceutica N.V., priority 2009, dated 2012).)
